Measurements taken from patent US20090239839A1, “RECEPTOR ANTAGONIST” (TAKEDA PHARMACEUTICAL COMPANY LIMITED, priority 2003, published 2009).

Tests used:
Type in all cases: in vivo
[1] = test system: Wistar male rat; experiment: Amnesia promoting activity of RFRP (cued fear conditioning, ventricle administration); conditions: RFRP-1 3 nmol into a ventricle, on 2 day (48 hours after training), sound stimulation
Description: FIG. 4 indicates a ratio of freezing in a sound clue when RFRP-1 (-□-) and a physiological saline (-∘-) are administered in a ventricle. An ordinate axis indicates freezing (%) of one day and two day after administration, respectively, expressed by mean±standard error.
Since an RFRP nerve is projected on amygdaloid complex, in order to study involvement of RFRP in amygdaloid complex-dependent memory•learning ability, influence under cued fear conditioning due to ventricle administration of RFRP-1 was studied. A mature Wistar male rat (weight 280 to 320 g at operation) was anesthetized with 50 mg/kg of pentobarbital by intraperitoneal administration, and a rat was fixed in a brain localization apparatus. A tooth cutting bar was set lower by 3.3 mm from an interoralline. A cranial bone was exposed, and a hole was opened in a bone using a dental drill in order to embed a guide cannulae AG-12 (internal diameter 0.4 mm, external diameter 0.5 mm, Eicom) in a ventricle. In addition, an anchor screw was embedded in four places at a periphery thereof. A stainless guide cannulae AG-12 was inserted so that its tip was positioned at an upper part of a side ventricle. A localization coordinate was set to be AP: −0.8 mm, L: 1.5 mm, H, 4.5 mm from a Blegma according to Atlas of Paxinos and Watson (1986). […]

[2] = test system: Wistar male rat; experiment: Blood glucose concentration increasing activity of RFRP (intravenous administration to rat); conditions: RFRP-1 10 nmol/kg intravenous, 5 minutes and 15 minutes after administration, vs physiological saline group
Description: (§1) In the figure, (-∘-) represents a blood glucose concentration of a physiological saline administration group, (-▴-) represents a blood glucose concentration of an RFRP-1 1 nmol/kg administration group, and (-▪-) represents a blood concentration of an RFRP-1 10 nmol/kg administration group.
As RFRP, human RFRP-1 (37 amino acids) consisting of an amino acid sequence of 56th (Ser) to 92nd (Phe) of an amino acid sequence represented by SEQ ID No.: 4. Hereinafter, this peptide is abbreviated as RFRP-1.
In order to study influence of peripheral administration of RFRP-1 on a blood glucose concentration, operation for collecting blood under free moving was performed. A mature Wistar male rat (weight 310 to 350 g at operation) was anesthetized with 50 mg/kg of pentobarbital by intraperitoneal administration. The rat was fixed on an anatomic pad in a supine position, and a left jugular vein was exposed. […]
Overnight after operation, 300 μl of blood was collected using a tuberculin injection syringe having a dose of 1 ml and a 25 gauge injection needle (both Telmo) before administration of RFRP-1. […] A blood glucose concentration was measured using Fuji Drichem 3500 (FUJIFILM).

[3] = test system: Wistar male rat; experiment: Pancreatic glucagon secretion promoting activity of RFRP (blood glucagon and insulin in rat); conditions: RFRP-1 intravenous; for blood glucagon concentration: vs physiological saline group
Description: as §1, with “blood glucagon” for “blood glucose”, “blood glucagon” for “blood”
as §1, with “blood insulin” for “blood glucose”, “blood insulin” for “blood”, “group. A value indicates mean±standard deviation (mean±SE) (n=4).” for “group.”
In order to study mechanism of blood glucose concentration increasing activity of RFRP-1, influence of RFRP-1 on a blood concentration of glucagon and insulin which are known as a hormone imparting a variation to a blood glucose concentration was studied. A mature Wistar male rat (weight 310 to 350 g at operation) was operated for collecting blood under free moving. Overnight after operation, 300 μl of a blood was collected using a tuberculin injection syringe having a dose of 1 ml and a 25 gauge injection needle (both Telmo) before administration of RFRP-1. In order to prevent blood coagulation, 3 μl of a 300 KIU/ml aprotinin solution containing 3 mg/ml EDTA had been placed into an injection syringe in advance. An Otsuka physiological saline or RFRP-1 dissolved in a physiological saline (80 nmol/mL) was intravenously administered through a tube at 1 mL/Kg. After 1, 3, 5 and 15 minutes from initiation of intravenous administration, each 300 μl of blood was collected from a jugular vein. The collected blood was centrifuged (13,000 rpm, 5 minutes) using a minor amount high speed cooling centrifuge (MR-150, Tommy Seiko), and the supernatant (plasma) was recovered.

RFRP-1: human RFRP-1 (37 amino acids) consisting of an amino acid sequence of 56th (Ser) to 92nd (Phe) of SEQ ID No.: 4 (SLNFEELKDWGPKNVIKMSTPAVNKMPHSFANLPLRF; Human)
rate of freezing [1]: 35.5% | blood glucose concentration [2]: significant (p<0.05, n=4) activity of increasing a blood glucose concentration | blood insulin concentration [3]: a variation due to administration of RFRP-1 was not recognized | blood glucagon concentration ([3]; 5 minutes after administration): significant (p<0.01) increase was continued | blood glucagon concentration ([3]; two minutes after administration): significant (p<0.01) increase in a blood glucagon concentration was recognized
